One block for each compound: values may come before it.
Legend:
[1] = biological target: human serum albumin (Homo sapiens, UniProt P02768); assay: Liquid assay for human serum albumin (increase in absorbance); details: albumin 100 mg/dl, 200-250 mM Na+ or K+ citrate buffer
Method: The utility of the merocyanine protein error indicator compounds of the present invention in a liquid assay for the determination of protein levels in a liquid test sample is illustrated in Table 7 below. […] The solution was then treated with sufficient human serum albumin to make the albumin concentration 100 mg/dl and the absorbance was measured again. The reported increase in absorbance (Δ abs) is proportional to the amount of albumin present, and is indicative of the relative sensitivity of the dye for measuring protein.

[2] = pKa of the indicator compound; assay type: physicochemical
[3] = biological target: T1, human serum albumin (HSA) (Homo sapiens, UniProt P02768); assay: Dose response of reagent strips including SPDIB (K/S reflectance, Clinitek 200); details: analytical test strips including 0.3 mM SPDIB; 50 mM potassium citrate, pH 2.5; K/S at 25 seconds; FIG. 7
T1 construct: purchased Miles, Inc., Elkhart, Ind; (Pentex)
T1 sequence (P02768 25-609): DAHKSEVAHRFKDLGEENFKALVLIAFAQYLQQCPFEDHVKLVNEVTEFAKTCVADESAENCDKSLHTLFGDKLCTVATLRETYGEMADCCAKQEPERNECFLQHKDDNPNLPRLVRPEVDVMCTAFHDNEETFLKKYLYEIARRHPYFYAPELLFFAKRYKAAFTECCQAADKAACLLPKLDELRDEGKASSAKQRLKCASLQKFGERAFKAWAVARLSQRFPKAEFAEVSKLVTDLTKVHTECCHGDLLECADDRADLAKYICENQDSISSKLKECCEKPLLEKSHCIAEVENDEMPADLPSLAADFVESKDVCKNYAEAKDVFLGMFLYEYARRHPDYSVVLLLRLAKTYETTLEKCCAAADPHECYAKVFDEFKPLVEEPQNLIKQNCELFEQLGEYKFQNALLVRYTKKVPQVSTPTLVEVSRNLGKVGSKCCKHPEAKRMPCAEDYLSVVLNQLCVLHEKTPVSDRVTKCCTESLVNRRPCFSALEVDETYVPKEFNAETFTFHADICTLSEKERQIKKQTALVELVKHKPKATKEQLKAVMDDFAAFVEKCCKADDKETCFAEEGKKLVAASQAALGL
Method: A buffered liquid sample (50 mM potassium citrate, pH 2.5) which was shown by immunoassay to be devoid of albumin, was spiked to various clinically significant levels with Pentex® human serum albumin (HSA) (Miles, Inc., Elkhart, Ind.). Using a Clinitek 200® Instrument (Miles, Inc., Elkhart, Ind.) protein measurements were made using analytical test strips including 0.3 mM SPDIB.
Resolution was quantitatively expressed in delta K/S between albumin levels, as shown FIG. 7. K/S are calculated from the formula: [formula] wherein R is the fraction of reflectance from the test device, K is a constant, and S is the light scattering coefficient of the particular reflecting medium. The above equation is a simplified form of the well-known Kubelka-Munk equation (See Gustav Kortum, "Reflectance Spectroscopy," pp. 106-11, Springer Verlas, New York (1969). K/S was determined at 25 seconds.

Chain of human serum albumin (P02768 25-609): as above

ΔABS (increase in absorbance) ([1]; compound conc. 1.0 × 10^-5 M, assay pH 3.0, λ 522 nm): 0.156
COMPD. pKa [2]: 3.59
Structure (SMILES): CC1(C)C(C=Cc2cc(Br)c(O)c(Br)c2)=[N+](CCCS(=O)(=O)[O-])c2ccccc21 [Compound A, 1-(ω-sulfopropyl)-2-(4'hydroxy-3',5'-dibromostyryl)-3,3-dimethylindoleninium betaine]

ΔABS (increase in absorbance) ([1]; compound conc. 2.5 × 10^-5 M, assay pH 3.5, λ 506 nm): 0.027
COMPD. pKa [2]: 4.35
Structure (SMILES): O=S(=O)([O-])CCCC[n+]1c(C=Cc2cc(I)c(O)c(I)c2)sc2ccccc21 [Compound B, 1-(ω-sulfobutyl)-2-(4'-hydroxy-3',5'-diiodostyryl)-benzothiazolium betaine]

ΔABS (increase in absorbance) ([1]; compound conc. 1.5 × 10^-5 M, assay pH 3.0, λ 543 nm): 0.255
COMPD. pKa [2]: 3.65
Structure (SMILES): CC1(C)C(C=Cc2cc(I)c(O)c(I)c2)=[N+](CCS(=O)(=O)[O-])c2ccccc21 [Compound C, 1-(ω-sulfoethyl)-2-(4'-hydroxy-3',5'-diiodostyryl)-3,3-dimethylindoleninium betaine]

ΔABS (increase in absorbance) ([1]; compound conc. 2.0 × 10^-5 M, assay pH 3.0, λ 541 nm): 0.402
COMPD. pKa [2]: 3.65
Structure (SMILES): CC1(C)C(C=Cc2cc(I)c(O)c(I)c2)=[N+](CCCS(=O)(=O)[O-])c2ccccc21 [Compound D, 1-(ω-sulfopropyl)-2-(4'-hydroxy-3'-5'-diiodostyryl)-3,3-dimethylindoleninium betaine]
resolution between protein levels (delta K/S) [3]: significant resolution between protein levels
response of the strip to different levels of protein [3]: sensitive to a wide range of protein concentrations

ΔABS (increase in absorbance) ([1]; compound conc. 1.8 × 10^-5 M, assay pH 3.0, λ 535 nm): 0.322
COMPD. pKa [2]: 3.52
Structure (SMILES): CC1(C)C(C=Cc2cc(I)c(O)c(I)c2)=[N+](CCCCS(=O)(=O)[O-])c2ccccc21 [Compound E, 1-(ω-sulfobutyl)-2-(4'-hydroxy-3',5'-diiodostyryl)-3,3-dimethylindoleninium betaine]
